Source: patent US11407725B2 (The Board of Trustees of the University of Illinois, priority 2018, dated 2022)
Where “and” joins values, the source holds several entries; their conditions need not be identical. Equal values may be shown once.

How the values were obtained:
[1] = Photophysical properties (absorbance, emission, extinction coefficient, quantum yield); format: physicochemical; conditions: for λabs: maximum absorbance
Log D7.4 = format: physicochemical; conditions: pH 7.4
K562 cells [2] = assay: Trypan blue cytotoxicity / viability assay; format: cell-based; conditions: K562 cells; 6, 12 and 24 hours
Experimental: K562 cells were plated in a 96-well plate with 50,000 cells per well. Each well was filled to a final volume of 100 μL IMDM media with 0.25% DMSO. Wells were tested using red-AlDeSense or Ctrl-red-AlDeSense (1 μM and 5 μM each) or using a DMSO control. After 6-, 12-, and 24-hour incubation periods at 37° C. and 5% CO2, a 10 μL sample was removed from each condition and combined with 10 μL 0.4% w/v trypan blue in PBS. Samples were incubated for 3 minutes at room temperature before being loaded on a hemocytometer where live and dead cells were counted. Conditions were tested in triplicate for each time point. Samples were analyzed on an EVOS digital inverted microscope using transmitted white light for brightfield imaging and the Cy5 filter cube for trypan blue visualization.
K562 cells were plated in a 96-well plate at a density of 500,000 cells/mL in full IMDM media supplemented with either 1 μM or […] AlDeSense AM. Equivalent samples were supplemented with 1 μM or […] as a vehicle control. At 6, 12, and 24 hours, a 10 μL sample was removed from each of the samples and mixed 1:1 with a 0.4% wt/volume trypan blue solution in PBS. Samples were incubated for 1 minute at room temperature before being loaded onto a hemocytometer where live and dead cells were counted. Each sample was made in triplicate for each time point.

[3] = Response to reactive species, biological thiols and amines (chemostability)
Experimental: (e) Response of AlDeSense to various reactive oxygen species, biological thiols, and amines at concentrations of 100 μM (GSH was tested at 1 mM). For all assays, AlDeSense was used at 1 μM final concentration.
All assays were performed in 50 mM triethanolamine buffer red-AlDeSense was used at 2 μM. Enzyme concentrations affording 1 nmol substrate/minute were used. Reactive species were tested at 100 μM, except glutathione which was at 1 mM.

ALDH1A3 = target: T1, ALDH1A3 (Homo sapiens, UniProt P47895); assay: ALDH isoform selectivity of red probes: ALDH1A3; format: biochemical
T1 construct: made in house
T1 sequence (P47895 1-512): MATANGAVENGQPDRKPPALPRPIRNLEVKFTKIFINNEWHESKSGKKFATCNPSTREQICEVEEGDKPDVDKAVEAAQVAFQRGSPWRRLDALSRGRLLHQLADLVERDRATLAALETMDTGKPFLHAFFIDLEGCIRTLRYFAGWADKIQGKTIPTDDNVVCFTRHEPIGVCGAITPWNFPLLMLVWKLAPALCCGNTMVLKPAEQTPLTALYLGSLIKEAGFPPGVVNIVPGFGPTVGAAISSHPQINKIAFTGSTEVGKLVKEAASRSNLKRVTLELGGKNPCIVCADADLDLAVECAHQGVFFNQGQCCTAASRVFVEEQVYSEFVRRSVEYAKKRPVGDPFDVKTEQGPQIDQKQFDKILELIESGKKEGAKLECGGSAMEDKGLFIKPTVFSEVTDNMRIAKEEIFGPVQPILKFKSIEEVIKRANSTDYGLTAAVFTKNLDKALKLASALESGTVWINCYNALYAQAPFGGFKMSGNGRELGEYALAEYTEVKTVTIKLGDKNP
Experimental: Each ALDH isoform was added to a 50 mM triethanolamine solution (pH 7.4) containing 2.0 mM NAD^+ and 100 μM substrate at room temperature. Benzaldehyde was the substrate for ALDH3A1. Propanal was the substrate for all other isoforms. ALDH isoform activity was determined by monitoring the rate of NADH production through the increase in absorbance at 340 nm (ε=6220 M^−1cm^−1). For these assays, 1 unit is defined as the amount of enzyme that catalyzes the conversion of […] per minute. For every combination of dye and enzyme, 2 μM dye was preincubated with 2.0 mM NAD^+ in 50 mM triethanolamine solution (pH 7.4). The reaction was initiated by addition of 1 unit of ALDH. Dyes were excited at 590 nm, and fluorescence was measured continuously at 610 nm.

ALDH1A1 = target: T2, ALDH1A1 (Homo sapiens, UniProt P00352); assay: ALDH1A1 kinetics; format: biochemical
T2 construct: made in house
T2 sequence (P00352 1-501): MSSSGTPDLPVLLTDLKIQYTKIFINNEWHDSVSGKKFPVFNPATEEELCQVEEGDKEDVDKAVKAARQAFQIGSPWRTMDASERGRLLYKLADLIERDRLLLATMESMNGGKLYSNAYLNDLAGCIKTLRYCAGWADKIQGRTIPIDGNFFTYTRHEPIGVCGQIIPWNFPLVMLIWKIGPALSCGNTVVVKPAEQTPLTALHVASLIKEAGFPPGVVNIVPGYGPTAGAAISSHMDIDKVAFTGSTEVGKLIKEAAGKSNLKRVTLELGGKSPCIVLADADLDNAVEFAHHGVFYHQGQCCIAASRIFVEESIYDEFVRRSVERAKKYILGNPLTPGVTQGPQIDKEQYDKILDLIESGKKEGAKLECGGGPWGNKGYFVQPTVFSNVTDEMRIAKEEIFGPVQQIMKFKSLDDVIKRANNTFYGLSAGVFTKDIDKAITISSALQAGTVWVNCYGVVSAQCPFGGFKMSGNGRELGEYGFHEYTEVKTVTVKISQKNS
Experimental: Solutions were prepared of 2.0 mM NAD+ and 0.1-2.5 μM AlDeSense or red-AlDeSense in 50 mM triethanolamine solution (pH 7.4). For every concentration, 1 unit of enzyme (as defined and determined in ALDH Isoform Selectivity) was added. Fluorescence was monitored for 30 seconds to determine V0. AlDeSense was excited at 490 nm and monitored at 510 nm. Red-AlDeSense was excited at 590 nm and monitored at 610 nm. Each condition was performed in triplicate. Protein concentration was determined using the Pierce™ BCA Protein Assay Kit. Data was analyzed using Microsoft Excel.

K562 cells [4] = assay: Flow cytometry of K562 cells with red-AlDeSense; format: cell-based, human; conditions: 1 μM dye
Experimental: For all cell lines, 200,000 cells in a single-cell suspension were transferred into 1.5 mL Eppendorf tubes. Cells were pelleted by centrifugation at 400 g for 5 minutes at room temperature. After removing the supernatant by aspiration, cells were resuspended in 300 μL premixed PBS supplemented with verapamil, probenecid, and novobiocin. […] Samples were immediately stored on ice. Cells were stained with red-AlDeSense or Ctrl-red-AlDeSense (100 μL of 4 μM dye solution; dyes were normalized by fluorescence spectroscopy). Samples were analyzed on a BD LSR II Flow Cytometry Analyzer using a 488 nm laser and a 550 LP and 610/30 filter set. Samples were analyzed every 5 minutes for 15 minutes, with the samples being placed back on ice between data collection. Data were analyzed on FCS Express 6.04.

Compound: Cc1cc(C=O)ccc1-c1c2cc(F)c(=O)cc-2oc2cc(O)c(F)cc12 [AlDeSense]
- ε [1]: 61000 M⁻¹ cm⁻¹
- λcm ([1]; Table 1): 516 nm
- ΔE00 ([1]; at 503 nm, intersecting wavelength of normalized absorbance and emission): 2.46 eV
- λabs [1]: 496 nm
- ΦF ([1]; prior to activation): 0.04 and 0.041
- logD (Log D7.4): 0.88
- toxicity in cell viability assay (K562 cells [2]): non-toxic
- response to thiols and amines ([3]; 100 μM (GSH 1 mM), 1 μM AlDeSense): did not detect formation of fluorescent hemithioacetal and Schiff base products
- response to panel of reactive oxygen species ([3]; 100 μM species, 1 μM AlDeSense): did not observe any oxidized fluorescent products

Compound: Cc1cc(C=O)c(F)c(F)c1C1=C2C=CC(=O)C=C2[Si](C)(C)c2cc(O)ccc21
- bathochromic shift in absorbance and emission compared to AlDeSense [1]: 100 nm
- maximum emission (λem) [1]: 614 nm
- Quantum Yield ([1]; Probes 1-8): 0.21
- λabs [1]: 594 nm
- toxicity in cell viability assay (K562 cells [2]): nontoxic
- selectivity ALDH1A1 versus ALDH1A3 (ALDH1A3): selective for ALDH1A1 over ALDH1A3
- Enzyme Activity 1A3 (ALDH1A3; Table 2): Low
- higher catalytic efficiency (kcat/Km) versus AlDeSense (ALDH1A1): 2.3 fold
- K562 cells with high ALDH1A1 activity (K562 cells [4]): 39.0±8.3%
- chemostability across reactive oxygen, nitrogen and sulfur species ([3]; species 100 μM, glutathione 1 mM, 2 μM red-AlDeSense): only ALDH1A1 elicited turnover
